Molecular target: T1, Thrombus (Rattus norvegicus, UniProt P02680+P06399+P14480)
T1 construct: thrombin cleaves fibrinopeptides on fibrinogen resulting in an end-to-end polymerization to give the polymer fibrin; A day old autologous blood clot was injected into the right internal carotid artery; from tissue; host or cells: autologous blood clot in the right internal carotid artery of Wistar rats
T1 sequence (P06399 37-550 isoform P06399-2 limits assumed): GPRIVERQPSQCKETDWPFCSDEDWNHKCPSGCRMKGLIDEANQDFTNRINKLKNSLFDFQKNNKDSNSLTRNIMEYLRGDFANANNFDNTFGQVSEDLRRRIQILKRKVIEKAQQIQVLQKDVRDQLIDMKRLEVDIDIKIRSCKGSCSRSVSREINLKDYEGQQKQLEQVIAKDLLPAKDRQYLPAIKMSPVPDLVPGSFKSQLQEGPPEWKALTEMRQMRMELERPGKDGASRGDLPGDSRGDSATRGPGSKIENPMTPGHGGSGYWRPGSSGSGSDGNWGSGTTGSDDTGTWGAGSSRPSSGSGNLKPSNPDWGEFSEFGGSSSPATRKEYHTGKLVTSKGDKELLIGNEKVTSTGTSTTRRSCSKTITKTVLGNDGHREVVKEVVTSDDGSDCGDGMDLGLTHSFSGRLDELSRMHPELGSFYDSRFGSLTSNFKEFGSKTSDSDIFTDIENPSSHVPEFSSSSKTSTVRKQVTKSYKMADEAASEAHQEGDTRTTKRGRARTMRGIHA
T1 sequence (P14480 33-479 limits assumed): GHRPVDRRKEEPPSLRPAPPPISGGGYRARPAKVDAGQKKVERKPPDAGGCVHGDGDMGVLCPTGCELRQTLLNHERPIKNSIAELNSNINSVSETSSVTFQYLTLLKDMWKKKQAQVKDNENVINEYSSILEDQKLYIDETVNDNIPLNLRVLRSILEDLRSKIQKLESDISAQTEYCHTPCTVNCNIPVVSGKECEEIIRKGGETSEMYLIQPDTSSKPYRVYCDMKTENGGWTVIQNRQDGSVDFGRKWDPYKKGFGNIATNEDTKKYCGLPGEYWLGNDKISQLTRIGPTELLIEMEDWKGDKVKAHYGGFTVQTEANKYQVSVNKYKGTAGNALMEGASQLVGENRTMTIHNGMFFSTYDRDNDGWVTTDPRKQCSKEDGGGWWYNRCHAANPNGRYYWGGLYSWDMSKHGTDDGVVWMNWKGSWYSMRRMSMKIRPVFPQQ
T1 sequence (P02680 26-437 isoform P02680-2 limits assumed): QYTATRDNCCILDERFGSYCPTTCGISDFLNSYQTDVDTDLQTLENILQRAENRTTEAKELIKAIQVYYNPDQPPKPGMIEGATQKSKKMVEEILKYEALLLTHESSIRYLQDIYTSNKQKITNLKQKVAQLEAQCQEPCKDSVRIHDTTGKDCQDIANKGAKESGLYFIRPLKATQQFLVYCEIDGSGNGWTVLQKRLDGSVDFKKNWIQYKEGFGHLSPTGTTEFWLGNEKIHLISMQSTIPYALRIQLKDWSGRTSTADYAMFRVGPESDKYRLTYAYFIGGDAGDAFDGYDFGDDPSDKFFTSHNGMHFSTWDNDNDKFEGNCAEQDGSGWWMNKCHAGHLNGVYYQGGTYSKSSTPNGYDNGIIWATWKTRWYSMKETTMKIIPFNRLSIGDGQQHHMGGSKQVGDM
Experiment: MR-PET imaging of occlusive thrombus in right internal carotid artery of rats
Assay type: in vivo
Conditions: for PET time-activity curve in thrombus: over 90 min, contralateral vessel signal decays with time; for Thrombus visibility on black-blood T1-weighted MR post injection: six animals imaged
Experimental: All animal studies were approved by the Subcommittee on Research Animal Care at Massachusetts General Hospital. The occlusive thrombus model was described previously (Zhang R L, Chopp M, Zhang Z G, Jiang Q, and Ewing J R., Brain Res. 1997 766(1-2):83-92). Briefly, male Wistar rats (350-400 g, n=8; Charles River Laboratories, Wilmington, Mass.) were anaesthetized with isoflurane (1-2% in 70% N2O and 30% O2) and body temperature was kept at 37.5° C. A day old autologous blood clot was injected into the right internal carotid artery (ICA) at the level of the middle cerebral artery (MCA). The femoral vein was cannulated for intravenous delivery of the contrast agent. Simultaneous PET and MR were acquired on a clinical 3T MRI-BrainPET scanner using a home-built receive surface coil and a CP transmit coil. After baseline MR scans were acquired, the dual MR-PET probe was injected at a dose of 11.5 μmol/kg (46 μmol Gd/kg, total activity=19.6±5.9 MBq). The animals were sacrificed 2 h post-injection. In total, six animals underwent imaging while in two additional animals only biodistribution data was collected.
The list-mode emission data from PET were rebinned in the sinogram space for fast reconstruction. The uncorrected PET volume was first reconstructed and binary segmented based on an empirically determined threshold in soft tissue and air. A uniform linear attenuation coefficient (0.096 cm^−1, corresponding to water at 511 keV) was assigned to all soft tissue voxels and the resulting attenuation map (combined with the coil attenuation map) was forward projected to derive the attenuation correction factors in sinogram space. A model-based approach was used to derive the scatter sinogram. The normalization was calculated from a 64 hr scan of a plane-source rotated in the FOV. The images were reconstructed with the ordinary Poisson ordered subsets expectation maximization (OP-OSEM) algorithm using 16 subsets and 6 iterations. The reconstructed volume consists of 153 slices with 256×256 pixels (1.25×1.25×1.25 mm^3). The spatial resolution at the center of the field of view is approximately 2.5 mm.
The emission data were recorded in list-mode format for approximately 90 min (9×10 min frames) after MR-PET probe administration. The data acquired in each individual frame were processed and images were reconstructed after acquisition for immediate analysis. Images were also reconstructed from the data acquired 30-90 minutes post injection. Additionally, thirty 3-minute frames were generated and the tracer uptake in structures of interest as a function of time was analyzed.
The MR imaging sequence included MP-RAGE and 3D T1-weighted gradient echo scans with and without inflow saturation. The latter were used for time of flight (TOF) angiography. The field of view scanned for the 3D sequences was 85×85 mm^2, with repetition time (TR), echo time (TE), and flip angle of 32 ms, 5.78 ms and 18°, respectively. […] For the MP-RAGE, the parameters used were inversion time TI=900 ms, TR/TE=2300/4.4, NEX=1, FOV=49×49 mm^2, matrix=192×192, slice thickness=0.26 mm for resolution=0.26 mm^3.
MR images were analyzed using OsiriX (www.osirix-viewer.com) by drawing regions of interest (ROI) in the thrombus, contralateral artery and adjacent tissue and quantifying signal intensity (SI). Noise was quantified as the standard deviation (SD) of the signal measured in the air outside the animal. Contrast to noise ratios (CNR) were calculated for the difference between tissue A and tissue B using the following equation (1). CNR(tissue A/tissue B)=[SI(tissue A)−SI(tissue B)]/SD(air) (1)
Signal intensity ratios (SIR) between the thrombus (ipsilateral) and contralateral vessel were calculated using equation (2) for images pre- and 10 min post-probe administration. SIR=[SI(ipsilateral)/SI(contralateral)]post/[SI(ipsilateral)/SI(contralateral)]pre (2) […]

CNRthrombus:brain post probe (black-blood MR, 11.5 μmol/kg i.v., pre-injection −2.0±2.2, p<0.005): 13.0±2.0
PET SIRipsi:contra (hyperintense lesion vs identical contralateral volume of interest, p<0.01): 1.85±0.48
PET time-activity curve in thrombus: rapid and static uptake in the thrombus
Thrombus visibility on black-blood T1-weighted MR post injection (listed as Gd3-EP-2104R-^64Cu): clearly visible
MR SIRpost/SIRpre (thrombus vs contralateral vessel, pre and 10 min post probe, p<0.01): 1.71±0.35
Substance: Gd3-EP-2104R-Cu [Compound 21]
PET time-activity curve in thrombus (listed as Gd3-EP-2104R-^64Cu): activity remains approximately constant over 90 min
Thrombus visibility on black-blood T1-weighted MR post injection: now bright indicating the presence of thrombus

— US9200017B2, “Multimodal imaging of fibrin” (The General Hospital Corporation, priority 2009, dated 2015)
